Patent publication US4180669A, “2-(N-phenethyl-4-piperidino)-5-pentyl resorcinol” (Abbott Laboratories, priority 1978, dated 1979)
Where a name gives a salt, the structure may show the parent alone. Read-outs that look alike come from different tables or passages of the source.

Experiments:
pylorous ligated rats = assay: Antisecretory activity in the pylorous ligated rat model; assay type: in vivo, male Sprague-Dawley rats; conditions: for inhibition in vivo at 6.3 mg/kg / inhibition in vivo at 12.5 mg/kg / inhibition in vivo at 25 mg/kg / inhibition in vivo at 50 mg/kg / inhibition in vivo at 100 mg/kg: Rattus norvegicus, 4 h; for inhibition in vivo at 6.3 mg/kg: oral dose 6.3 mg/kg
Description: To determine the antisecretory activity of the present compounds, the compounds were tested for such activity in pylorous ligated rats. In this test, male Sprague-Dawley rats weighing 170-190 g. were fasted for 24 hours. Water was allowed ad libitum. All groups were comprised of six rats. […] Water was withheld after drug administration. Ligation of the pyrloric sphincter was performed under ether anesthesia, and four hours after ligation the animals were sacrificed with CO2. The stomach was dissected out and the contents were expelled into a graduated centrifuge tube. The samples were centrifuged and the volume, less debris, was measured. Sample aliquots were titrated with 0.05 N NaOH to determine acid concentration. Pepsin activity was determined on an auto analyzer using hemoglobin as the substrate by the method of Anson. Group means for volume, acid and pepsin concentrations, and pepsin outputs were compared for statistically significant differences from control means by Student's t-test.

[1] = test system: pentagastrin stimulated fistula dog; assay: Antisecretory activity in the pentagastrin stimulated fistula dog; assay type: in vivo, female beagle dogs; conditions: pentagastrin 10 μg/kg s.c., 2 hours
Description: In addition to the test described in Example XXXVI, some of the present compounds were tested in dogs.
In this test, female beagle dogs weighing 5.5-7.5 kg. were surgically provided with gastric fistulas at the ventral wall of the stomach near the greater curvature and just proximal to the antrum. The animals were allowed to recover for three to four weeks before handling and training were begun, and experiments were started six to eight weeks after surgery. The individually housed dogs were fasted for 20-24 hours before use. Water was allowed ad lib. Treatment selection was determined by a randomized schedule which included control groups given vehicle (0.5% Methocel® solution) only. During the test period each dog was secured in a standing position with one collar around the neck and another around the lower abdomen. Before drug administration, the cannula plug of the gastric fistula was removed and the pH of the gastric juice was checked. Animals with acidic gastric juice (pH 4.0 or less) were replaced with alternate dogs. Then the drug was administered intragastrically […] through a special gastric cannula instillation plug, 30 minutes prior to subcutaneous administration of a gastric stimulant (pentagastrin, 10 μg/kg).
For each dog, collection of gastric juice was begun immediately after administration of the gastric stimulant and continued for two hours. The volumes of collected gastric juices were measured. The acid concentration and pepsin activity were determined for all samples by automated procedures. For the dog data, as recorded in Table 2, below, group means for volume (ml), acid concentration (acidity, mEq/l), pepsin concentration (mg/ml), acid output (mEq/2 hr), and pepsin output (mg/2 hr) were compared with the respective control means using Student's t-test. The results were also expressed as percent inhibition of the respective individual mean control values.
Group means for volume, acid and pepsin concentrations, acid and pepsin outputs were compared for statistically significant differences from control means by Student's t-test.

[2] = oral dose 12.5 mg/kg, read-out: Percent inhibition of acid output
[3] = oral dose 12.5 mg/kg, read-out: Percent inhibition of acidity
[4] = oral dose 12.5 mg/kg, read-out: Percent inhibition of volume
[5] = oral dose 25 mg/kg, read-out: Percent inhibition of acid output
[6] = oral dose 25 mg/kg, read-out: Percent inhibition of acidity
[7] = oral dose 25 mg/kg, read-out: Percent inhibition of volume
[8] = oral dose 50 mg/kg, negative sign means stimulated, read-out: Percent inhibition of pepsin
[9] = oral dose 50 mg/kg, negative sign means stimulated, read-out: Percent inhibition of pepsin output
[10] = oral dose 50 mg/kg, read-out: Percent inhibition of acid output
[11] = oral dose 50 mg/kg, read-out: Percent inhibition of acidity
[12] = oral dose 50 mg/kg, read-out: Percent inhibition of volume
[13] = oral dose 100 mg/kg, read-out: Percent inhibition of acid output
[14] = oral dose 100 mg/kg, read-out: Percent inhibition of acidity
[15] = oral dose 100 mg/kg, read-out: Percent inhibition of volume
[16] = oral dose 50 mg/kg, negative sign means stimulated

Compound: CC(C)c1cc(O)c(C2=CCN(C)CC2)c(O)c1.Cl [Example VI, 2-(N-Methyl-1,2,3,6-tetrahydro-4-pyridyl)-5-isopropyl resorcinol hydrochloride]
- inhibition in vivo at 6.3 mg/kg (pylorous ligated rats; negative sign means stimulated, read-out: Percent inhibition of pepsin): -13.6%
- inhibition in vivo at 6.3 mg/kg (pylorous ligated rats; read-out: Percent inhibition of acid output): 23.4%
- inhibition in vivo at 6.3 mg/kg (pylorous ligated rats; read-out: Percent inhibition of acidity): 7%
- inhibition in vivo at 6.3 mg/kg (pylorous ligated rats; read-out: Percent inhibition of pepsin output): 7%
- inhibition in vivo at 6.3 mg/kg (pylorous ligated rats; read-out: Percent inhibition of volume): 18.9%
- inhibition in vivo at 12.5 mg/kg (pylorous ligated rats; oral dose 12.5 mg/kg, negative sign means stimulated, read-out: Percent inhibition of pepsin): -25.3%
- inhibition in vivo at 12.5 mg/kg (pylorous ligated rats; [2]): 59.4%
- inhibition in vivo at 12.5 mg/kg (pylorous ligated rats; [3]): 21.6%
- inhibition in vivo at 12.5 mg/kg (pylorous ligated rats; oral dose 12.5 mg/kg, read-out: Percent inhibition of pepsin output): 41.2%
- inhibition in vivo at 12.5 mg/kg (pylorous ligated rats; [4]): 49.8%
- inhibition in vivo at 25 mg/kg (pylorous ligated rats; oral dose 25 mg/kg, negative sign means stimulated, read-out: Percent inhibition of pepsin): -22.3%
- inhibition in vivo at 25 mg/kg (pylorous ligated rats; [5]): 80.9%
- inhibition in vivo at 25 mg/kg (pylorous ligated rats; [6]): 49.9%
- inhibition in vivo at 25 mg/kg (pylorous ligated rats; oral dose 25 mg/kg, read-out: Percent inhibition of pepsin output): 60.2%
- inhibition in vivo at 25 mg/kg (pylorous ligated rats; [7]): 66.1%
- inhibition in vivo at 50 mg/kg (pylorous ligated rats; [8]): -38.6%
- inhibition in vivo at 50 mg/kg (pylorous ligated rats; [9]): 54.7%
- inhibition in vivo at 50 mg/kg (pylorous ligated rats; [10]): 84.4%
- inhibition in vivo at 50 mg/kg (pylorous ligated rats; [11]): 51.7%
- inhibition in vivo at 50 mg/kg (pylorous ligated rats; [12]): 67.3%
- inhibition in vivo at 100 mg/kg (pylorous ligated rats; oral dose 100 mg/kg, negative sign means stimulated, read-out: Percent inhibition of pepsin): -48.8%
- inhibition in vivo at 100 mg/kg (pylorous ligated rats; [13]): 87.7%
- inhibition in vivo at 100 mg/kg (pylorous ligated rats; [14]): 62.1%
- inhibition in vivo at 100 mg/kg (pylorous ligated rats; oral dose 100 mg/kg, read-out: Percent inhibition of pepsin output): 53.3%
- inhibition in vivo at 100 mg/kg (pylorous ligated rats; [15]): 67.5%
- % Inhibition of acid output ([1]; dose 20 mg/kg): 26.6%
- % Inhibition of acidity ([1]; dose 20 mg/kg): 36.6%
- % Inhibition of pepsin ([1]; dose 20 mg/kg): 62.7%
- % Inhibition of pepsin output ([1]; dose 20 mg/kg): 57.1%
- % Inhibition of volume ([1]; dose 20 mg/kg): -17.6%

Compound: CCCCCC(C)C(C)c1cc(O)c(C2=CCN(Cc3ccccc3)CC2)c(O)c1.Cl (centres unmarked) [Example XIV, 2-(N-Benzyl-1,2,3,6-tetrahydro-4-pyridyl)-5-(1,2-dimethylheptyl) resorcinol hydrochloride]
- inhibition in vivo at 12.5 mg/kg (pylorous ligated rats; [2]): -17.3%
- inhibition in vivo at 12.5 mg/kg (pylorous ligated rats; [3]): -0.5%
- inhibition in vivo at 12.5 mg/kg (pylorous ligated rats; [4]): -5.9%
- inhibition in vivo at 25 mg/kg (pylorous ligated rats; [5]): 12.5%
- inhibition in vivo at 25 mg/kg (pylorous ligated rats; [6]): 9.2%
- inhibition in vivo at 25 mg/kg (pylorous ligated rats; [7]): 4.9%
- inhibition in vivo at 50 mg/kg (pylorous ligated rats; [8]): 12.7%
- inhibition in vivo at 50 mg/kg (pylorous ligated rats; [9]): 52.4%
- inhibition in vivo at 50 mg/kg (pylorous ligated rats; [10]): 57.6%
- inhibition in vivo at 50 mg/kg (pylorous ligated rats; [11]): 24.7%
- inhibition in vivo at 50 mg/kg (pylorous ligated rats; [12]): 48.9%
- inhibition in vivo at 100 mg/kg (pylorous ligated rats; [13]): 79.7%
- inhibition in vivo at 100 mg/kg (pylorous ligated rats; [14]): 31.6%
- inhibition in vivo at 100 mg/kg (pylorous ligated rats; [15]): 72.1%
- % Inhibition of acid output ([1]; dose 10 mg/kg): -10.4%
- % Inhibition of acidity ([1]; dose 10 mg/kg): 1.2%
- % Inhibition of pepsin ([1]; dose 10 mg/kg): -10.0%
- % Inhibition of pepsin output ([1]; dose 10 mg/kg): -23.1%
- % Inhibition of volume ([1]; dose 10 mg/kg): -12.3%

Compound: 2-(1,2,3,4-Tetrahydro-4-pyridyl)-3-methoxy-5-(1,2-dimethylheptyl)phenol hydrochloride [XXVIII]
- Percent inhibition of acid output (pylorous ligated rats; oral dose 12.5 mg/kg): 7.5%
- Percent inhibition of acidity (pylorous ligated rats; oral dose 12.5 mg/kg): 19.2%
- Percent inhibition of pepsin output (pylorous ligated rats; oral dose 12.5 mg/kg): 10.9%
- Percent inhibition of volume (pylorous ligated rats; oral dose 12.5 mg/kg): -14.5%
- Percent inhibition of pepsin (pylorous ligated rats; oral dose 12.5 mg/kg, negative sign means stimulated): 22.5%
- Percent inhibition of acid output (pylorous ligated rats; oral dose 25 mg/kg): 13.1%
- Percent inhibition of acidity (pylorous ligated rats; oral dose 25 mg/kg): 27.2%
- Percent inhibition of pepsin output (pylorous ligated rats; oral dose 25 mg/kg): 0.8%
- Percent inhibition of volume (pylorous ligated rats; oral dose 25 mg/kg): -19.5%
- Percent inhibition of pepsin (pylorous ligated rats; oral dose 25 mg/kg, negative sign means stimulated): 17.2%
- Percent inhibition of acid output (pylorous ligated rats; oral dose 50 mg/kg): 68.2%
- Percent inhibition of acidity (pylorous ligated rats; oral dose 50 mg/kg): 67.1%
- Percent inhibition of volume (pylorous ligated rats; oral dose 50 mg/kg): 3.7%
- Percent inhibition of pepsin (pylorous ligated rats; [16]): 7.5%
- Percent inhibition of pepsin output (pylorous ligated rats; [16]): 9.1%
- Percent inhibition of acid output (pylorous ligated rats; oral dose 100 mg/kg): 64.4%
- Percent inhibition of acidity (pylorous ligated rats; oral dose 100 mg/kg): 71.7%
- Percent inhibition of pepsin output (pylorous ligated rats; oral dose 100 mg/kg): 1.8%
- Percent inhibition of volume (pylorous ligated rats; oral dose 100 mg/kg): -23.1%
- Percent inhibition of pepsin (pylorous ligated rats; oral dose 100 mg/kg, negative sign means stimulated): 20.9%
- % Inhibition of acid output ([1]; dose 10 mg/kg): 16.5%
- % Inhibition of acidity ([1]; dose 10 mg/kg): 7.7%
- % Inhibition of pepsin ([1]; dose 10 mg/kg): 29.7%
- % Inhibition of pepsin output ([1]; dose 10 mg/kg): 35.1%
- % Inhibition of volume ([1]; dose 10 mg/kg): 9.2%
- % Inhibition of acid output ([1]; dose 20 mg/kg): 17.9%
- % Inhibition of acidity ([1]; dose 20 mg/kg): 26.2%
- % Inhibition of pepsin ([1]; dose 20 mg/kg): 48.0%
- % Inhibition of pepsin output ([1]; dose 20 mg/kg): 41.2%
- % Inhibition of volume ([1]; dose 20 mg/kg): -12.6%

Compound: CCCCCC(C)C(C)c1cc(O)c(C2CCNCC2)c(O)c1 (centres unmarked) [Example XVI, 2-(4-Piperidino)-5-(1,2-dimethylheptyl) resorcinol hydrochloride]
- inhibition in vivo at 50 mg/kg (pylorous ligated rats; [8]): 45.1%
- inhibition in vivo at 50 mg/kg (pylorous ligated rats; [9]): 40.3%
- inhibition in vivo at 50 mg/kg (pylorous ligated rats; [10]): 46.6%
- inhibition in vivo at 50 mg/kg (pylorous ligated rats; [11]): 50.7%
- inhibition in vivo at 50 mg/kg (pylorous ligated rats; [12]): -8.6%
- % Inhibition of acid output ([1]; dose 10 mg/kg): 20.3%
- % Inhibition of acidity ([1]; dose 10 mg/kg): 20.9%
- % Inhibition of pepsin ([1]; dose 10 mg/kg): 39.7%
- % Inhibition of pepsin output ([1]; dose 10 mg/kg): 39.1%
- % Inhibition of volume ([1]; dose 10 mg/kg): -0.2%
